Values of other authors, collected in EP1136875A2, “Small 3D emulsions with enhanced photographic response” (EASTMAN KODAK COMPANY, priority 2000, dated 2001).

details: value is for the conjugate acid of the printed base

SMILES | pKa's in water of the conjugate acids of some useful bases
C[N+](C)(C)[O-] [(CH3)3N^+–O^-] | 4.65
CC(=O)S [CH3–COS^-] | 3.33
CC(=O)NCC(=O)O [CH3–CO–NH–CH2–CO2^-] | 3.67
